Assay results: US9108957B2 (MITSUBISHI TANABE PHARMA CORPORATION, priority 2009, dated 2015)

Target: human recombinant TPK1 (Homo sapiens, UniProt P49841)
Experiment: Inhibitory activity against P-GS1 phosphorylation by TPK1 (Kinase Glo luminescence)
Format: biochemical
Conditions: 7.5 μM P-GS1, 10 μM ATP, 25° C. for 16 hours, Kinase Glo Reagent luminescent signal
Procedure, shortened: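 Human recombinant TPK1 phosphorylated 7.5 μM P-GS1 with 10 μM ATP in 100 mM HEPES-NaOH pH 7.2 with Mg, EGTA, DTT, Tween 20 and 1% DMSO final, for 16 h at 25° C. Remaining ATP was read by Kinase Glo luminescence. IC50 was normalised to no-enzyme (0%) and no-compound (100%) controls.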

Chain of human recombinant TPK1 (P49841 whole entry): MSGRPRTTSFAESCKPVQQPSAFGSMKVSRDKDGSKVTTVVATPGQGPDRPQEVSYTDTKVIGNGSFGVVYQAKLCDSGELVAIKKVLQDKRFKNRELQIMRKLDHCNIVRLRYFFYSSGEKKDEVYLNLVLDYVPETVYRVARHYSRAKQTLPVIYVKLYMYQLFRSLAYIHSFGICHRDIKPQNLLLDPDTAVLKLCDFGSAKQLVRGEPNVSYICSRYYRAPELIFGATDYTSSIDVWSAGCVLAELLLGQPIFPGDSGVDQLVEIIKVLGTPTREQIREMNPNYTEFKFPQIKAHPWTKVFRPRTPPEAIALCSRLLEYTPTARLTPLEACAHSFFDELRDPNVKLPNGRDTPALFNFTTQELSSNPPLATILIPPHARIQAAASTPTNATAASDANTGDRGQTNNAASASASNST

SMILES	IC50 [nM]
Cn1c(N2CCCO[C@@H](c3cccc(Br)c3)C2)nc(-c2ccncn2)cc1=O [Compound A079, (S)-2-[2-(3-bromophenyl)-1,4-oxazepan-4-yl]-3-methyl-6-(pyrimidin-4-yl)pyrimidin-4(3H)-one]	7.3
Cn1c(N2CCOCC(c3ccc(-c4ncno4)cc3)C2)nc(-c2ccncn2)cc1=O (centres unmarked) [Compound A080, 2-[6-[4-(1,2,4-oxadiazol-5-yl)-phenyl]-1,4-oxazepan-4-yl]-3-methyl-6-(pyrimidin-4-yl)pyrimidin-4(3H)-one]	10.8
Cc1noc(-c2ccc(C3COCCN(c4nc(-c5ccncn5)cc(=O)n4C)C3)cc2)n1 (centres unmarked) [Compound A081, 2-[6-[4-(3-methyl-1,2,4-oxadiazol-5-yl)-phenyl]-1,4-oxazepan-4-yl]-3-methyl-6-(pyrimidin-4-yl)pyrimidin-4(3H)-one]	12.9
Cn1c(N2CCOCC(c3ccc(-c4ncon4)cc3)C2)nc(-c2ccncn2)cc1=O (centres unmarked) [Compound A082, 2-[6-[4-(1,2,4-oxadiazol-3-yl)-phenyl]-1,4-oxazepan-4-yl]-3-methyl-6-(pyrimidin-4-yl)-pyrimidin-4(3H)-one]	13.2
Cc1nc(-c2ccc(C3COCCN(c4nc(-c5ccncc5F)cc(=O)n4C)C3)cc2)no1 (centres unmarked) [Compound A083, 2-[6-[4-(5-methyl-1,2,4-oxadiazol-3-yl)-phenyl]-1,4-oxazepan-4-yl]-6-(3 fluoropyridin-4-yl)-3-methylpyrimidin-4(3H)-one]	14
CC1COCCN(c2nc(-c3ccncc3F)cc(=O)n2C)C1 (centres unmarked) [Compound A084, 2-(6-methyl-1,4-oxazepan-4-yl)-6-(3-fluoropyridin-4-yl)-3-methylpyrimidin-4(3H)-one]	15
Cc1nc(-c2ccc([C@@H]3COCCN(c4nc(-c5ccncn5)cc(=O)n4C)C3)cc2)no1 [Compound A085, (S)-2-[6-[4-(5-methyl-1,2,4-oxadiazol-3-yl)-phenyl]-1,4-oxazepan-4-yl]-3-methyl-6-(pyrimidin-4-yl)pyrimidin-4(3H)-one]	16.7
Cc1nc(-c2ccc(C3COCCN(c4nc(-c5ccncn5)cc(=O)n4C)C3)cc2)no1 (centres unmarked) [Compound A086, 2-[6-[4-(5-methyl-1,2,4-oxadiazol-3-yl)-phenyl]-1,4-oxazepan-4-yl]-3-methyl-6-(pyrimidin-4-yl)pyrimidin-4(3H)-one]	35.8
CC1COCCN(c2nc(-c3ccncn3)cc(=O)n2C)C1 (centres unmarked) [Compound A087, 2-(6-methyl-1,4-oxazepan-4-yl)-3-methyl-6-(pyrimidin-4-yl)pyrimidin-4(3H)-one]	80.1
CC1COCCN(c2nc(-c3ccncc3)cc(=O)n2C)C1 (centres unmarked) [Compound A088, 2-(6-methyl-1,4-oxazepan-4-yl)-3-methyl-6-(pyridin-4-yl)pyrimidin-4(3H)-one]	176
Cn1c(N2CCCO[C@@H](c3ccc(F)cc3)C2)nc(-c2ccncn2)cc1=O [Compound A092, (S)-2-[2-(4-fluorophenyl)-1,4-oxazepan-4-yl]-3-methyl-6-(pyrimidin-4-yl)pyrimidin-4(3H)-one]	8.3
COc1cccc(C2CCN(c3nc(-c4ccncc4F)cc(=O)n3C)CCO2)c1 (centres unmarked) [Compound A093, 2-[7-(3-methoxyphenyl)-1,4-oxazepan-4-yl]-6-(3-fluoropyridin-4-yl)-3-methylpyrimidin-4(3H)-one]	9.65
COc1ccccc1C1CCN(c2nc(-c3ccncc3F)cc(=O)n2C)CCO1 (centres unmarked) [Compound A094, 2-[7-(2-methoxyphenyl)-1,4-oxazepan-4-yl]-6-(3-fluoropyridin-4-yl)-3-methylpyrimidin-4(3H)-one]	10.3
COc1ccc(C2CCN(c3nc(-c4ccncc4F)cc(=O)n3C)CCO2)cc1 (centres unmarked) [Compound A095, 2-[7-(4-methoxyphenyl)-1,4-oxazepan-4-yl]-6-(3-fluoropyridin-4-yl)-3-methylpyrimidin-4(3H)-one]	10.7
Cn1c(N2CCOC(c3ccc(F)cc3)CC2)nc(-c2ccncn2)cc1=O (centres unmarked) [Compound A098, 2-[7-(4-fluorophenyl)-1,4-oxazepan-4-yl]-3-methyl-6-(pyrimidin-4-yl)pyrimidin-4(3H)-one]	13.8
COc1cccc(C2CCN(c3nc(-c4ccncn4)cc(=O)n3C)CCO2)c1 (centres unmarked) [Compound A101, 2-[7-(3-methoxyphenyl)-1,4-oxazepan-4-yl]-3-methyl-6-(pyrimidin-4-yl)pyrimidin-4(3H)-one]	15.3
COc1ccccc1C1CCN(c2nc(-c3ccncn3)cc(=O)n2C)CCO1 (centres unmarked) [Compound A102, 2-[7-(2-methoxyphenyl)-1,4-oxazepan-4-yl]-3-methyl-6-(pyrimidin-4-yl)pyrimidin-4(3H)-one]	16.3
Cn1c(N2CCOC(c3ccccc3F)CC2)nc(-c2ccncn2)cc1=O (centres unmarked) [Compound A105, 2-[7-(2-fluorophenyl)-1,4-oxazepan-4-yl]-3-methyl-6-(pyrimidin-4-yl)pyrimidin-4(3H)-one]	18.7
Cn1c(N2CCOC(c3cccc(F)c3)CC2)nc(-c2ccncn2)cc1=O (centres unmarked) [Compound A106, 2-[7-(3-fluorophenyl)-1,4-oxazepan-4-yl]-3-methyl-6-(pyrimidin-4-yl)pyrimidin-4(3H)-one]	20.5
Cn1c(N2CCOC(c3ccc(F)cc3)CC2)nc(-c2ccncc2F)cc1=O (centres unmarked) [Compound A108, 2-[7-(4-fluorophenyl)-1,4-oxazepan-4-yl]-6-(3-fluoropyridin-4-yl)-3-methylpyrimidin-4(3H)-one]	24.6
COc1cccc(C2CCN(c3nc(-c4ccncc4)cc(=O)n3C)CCO2)c1 (centres unmarked) [Compound A109, 2-[7-(3-methoxyphenyl)-1,4-oxazepan-4-yl]-3-methyl-6-(pyridin-4-yl)pyrimidin-4(3H)-one]	28
Cn1c(N2CCOC(c3ccccc3F)CC2)nc(-c2ccncc2)cc1=O (centres unmarked) [Compound A110, 2-(7-(2-fluorophenyl)-1,4-oxazepan-4-yl)-3-methyl-6-(pyridin-4-yl)pyrimidin-4(3H)-one]	29.2
COc1ccccc1C1CCN(c2nc(-c3ccncc3)cc(=O)n2C)CCO1 (centres unmarked) [Compound A115, 2-(7-(2-methoxyphenyl)-1,4-oxazepan-4-yl)-3-methyl-6-(pyridin-4-yl)pyrimidin-4(3H)-one]	47.6
COc1ccc(C2CCN(c3nc(-c4ccncn4)cc(=O)n3C)CCO2)cc1 (centres unmarked) [Compound A117, 2-(7-(4-methoxyphenyl)-1,4-oxazepan-4-yl)-3-methyl-6-(pyrimidin-4-yl)pyrimidin-4(3H)-one]	54.7
COc1ccc(C2CCN(c3nc(-c4ccncc4)cc(=O)n3C)CCO2)cc1 (centres unmarked) [Compound A118, 2-(7-(4-methoxyphenyl)-1,4-oxazepan-4-yl)-3-methyl-6-(pyridin-4-yl)pyrimidin-4(3H)-one]	58.6
Cn1c(N2CCOC(c3ccc(F)cc3)CC2)nc(-c2ccncc2)cc1=O (centres unmarked) [Compound A123, 2-[7-(4-fluorophenyl)-1,4-oxazepan-4-yl]-3-methyl-6-(pyridin-4-yl)pyrimidin-4(3H)-one]	153
